Laboratory results as given in patent US20100298141A1, “SUBSTITUTED PYRIDINE N-OXIDE HERBICIDES” (E. I. DU PONT DE NEMOURS AND COMPANY, priority 2007, published 2010).

What was measured:
barnyardgrass [1] = assay: Test A pre-/postemergence greenhouse test; type: in vivo, Echinochloa crus-galli; conditions: for Barnyardgrass plant response rating: 0 to 100 scale; for Plant response rating, Barnyardgrass: 0 to 100 scale where 0 is no effect and 100 is complete control
In short: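 Each test compound, dissolved in a non-phytotoxic solvent mixture with surfactant, was sprayed directly onto seeded soil (loam/sand blend) and, at the same moment, onto seedlings carrying one to two leaves. Around ten greenhouse days later, plants were rated visually for injury relative to untreated controls.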

cocklebur = assay: Test C pre-/postemergence test; type: in vivo, Xanthium strumarium; conditions: for Plant response rating, Cocklebur: 31 g ai/ha, scale 0 to 100 (0 no effect, 100 complete control); for Plant response rating (0 to 100), Cocklebur: 250 g ai/ha
In short: (§1)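 Test chemicals were formulated with surfactant in a non-phytotoxic solvent and sprayed both on freshly planted seeds (preemergence) and on 1- to 4-leaf plants of 2–18 cm (postemergence). Flooded-paddy pots received compound directly into 3 cm of standing water, maintained for the test.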

kochia = assay: Test C pre-/postemergence test; type: in vivo, Kochia scoparia; conditions: Preemergence; for Kochia plant response rating: 62 g ai/ha, scale 0 to 100; for Plant response rating, Kochia: 31 g ai/ha, scale 0 to 100 (0 no effect, 100 complete control)
In short: as §1

velvetleaf = assay: Test C pre-/postemergence test; type: in vivo, Abutilon theophrasti; conditions: Preemergence; for Velvetleaf plant response rating: 62 g ai/ha, scale 0 to 100; for Plant response rating, Velvetleaf: 31 g ai/ha, scale 0 to 100 (0 no effect, 100 complete control)
In short: as §1

green foxtail = assay: Test F preemergence test; type: in vivo, Setaria viridis; conditions: scale 0 to 100
In short: (§2)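 Compound in a non-phytotoxic solvent blend with surfactant is applied preemergence to planted seeds or postemergence to sugarcane plants. Plants and controls stay in the greenhouse 14 to 21 days before visual comparison.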

mustard = assay: Test F preemergence test; type: in vivo, Brassica nigra; conditions: scale 0 to 100
In short: as §2

dallisgrass = assay: Test F preemergence test; type: in vivo, Paspalum dilatatum; conditions: scale 0 to 100
In short: as §2

barnyardgrass [2] = assay: Test F preemergence test; type: in vivo, Echinochloa crus-galli; conditions: scale 0 to 100
In short: as §2

broadleaf signalgrass = assay: Test F preemergence test; type: in vivo, Brachiaria platyphylla; conditions: scale 0 to 100; for Plant response rating, Signalgrass: 31 g ai/ha
In short: as §2

Virginia dayflower = assay: Test F preemergence test; type: in vivo, Commelina virginica; conditions: scale 0 to 100
In short: as §2

annual bluegrass = assay: Test F preemergence test; type: in vivo, Poa annua; conditions: scale 0 to 100
In short: as §2

itchgrass = assay: Test F preemergence test; type: in vivo, Rottboellia cochinchinensis; conditions: scale 0 to 100
In short: as §2

field bindweed = assay: Test F preemergence test; type: in vivo, Convolvulus arvensis; conditions: scale 0 to 100
In short: as §2

common mallow = assay: Test F preemergence test; type: in vivo, Malva sylvestris; conditions: scale 0 to 100
In short: as §2

[3] = Postemergence, 125 g ai/ha, 0 is no effect, 100 is complete control
[4] = Postemergence, 500 g ai/ha, 0 is no effect, 100 is complete control
[5] = Preemergence, 125 g ai/ha, 0 no effect, 100 complete control
[6] = 62 g ai/ha, Preemergence, scale 0 to 100
[7] = preemergence, 125 g ai/ha, scale 0 (no effect) to 100 (complete control)

Cc1cc[n+]([O-])c([S+]([O-])Cc2c(C(F)(F)F)nn(C)c2OCC(F)(F)F)c1 (racemic) [Compound 30]
25: Plant response rating, Foxtail, Green (green foxtail; Preemergence, 31 g ai/ha) | Plant response rating, Itchgrass (itchgrass; Preemergence, 31 g ai/ha)
80: Cocklebur plant response rating (cocklebur; [7]) | Bluegrass plant response rating (annual bluegrass; 125 g ai/ha, preemergence)
95: Barnyardgrass plant response rating (barnyardgrass [2]; 62 g ai/ha, Preemergence) | Plant response rating, Mallow (common mallow; Preemergence, 31 g ai/ha)
100: Barnyardgrass plant response rating (barnyardgrass [1]; [5]) | Plant response rating, Barnyardgrass (barnyardgrass [1]; Preemergence, 500 g ai/ha) | Kochia plant response rating (kochia) | Plant response rating, Kochia (kochia) | Velvetleaf plant response rating (velvetleaf) | Foxtail, Green plant response rating (green foxtail; 125 g ai/ha, preemergence) | Black Mustard plant response rating (mustard; 62 g ai/ha, Preemergence) | Black Mustard plant response rating (mustard; 125 g ai/ha, preemergence) | Barnyardgrass plant response rating (barnyardgrass [2]; 125 g ai/ha, preemergence) | Dayflower plant response rating (Virginia dayflower; 125 g ai/ha, preemergence) | Mallow plant response rating (common mallow; 62 g ai/ha, Preemergence) | Mallow plant response rating (common mallow; 125 g ai/ha, preemergence)
20: Plant response rating, Barnyardgrass (barnyardgrass [2]; Preemergence, 16 g ai/ha) | Plant response rating, Itchgrass (itchgrass; Preemergence, 16 g ai/ha)
35: Plant response rating, Bluegrass (annual bluegrass; Preemergence, 16 g ai/ha)
90: Barnyardgrass plant response rating (barnyardgrass [1]; [4]) | Plant response rating, Black Mustard (mustard; Preemergence, 31 g ai/ha) | Signalgrass plant response rating (broadleaf signalgrass; 125 g ai/ha, preemergence) | Dayflower plant response rating (Virginia dayflower; 62 g ai/ha, Preemergence) | Plant response rating, Mallow (common mallow; Preemergence, 16 g ai/ha)
75: Foxtail, Green plant response rating (green foxtail; 62 g ai/ha, Preemergence) | Plant response rating, Barnyardgrass (barnyardgrass [2]; Preemergence, 31 g ai/ha) | Field Bindweed plant response rating (field bindweed; 62 g ai/ha, Preemergence) | Field Bindweed plant response rating (field bindweed; 125 g ai/ha, preemergence)
65: Plant response rating, Signalgrass (broadleaf signalgrass; Preemergence) | Bluegrass plant response rating (annual bluegrass; 62 g ai/ha, Preemergence)
98: Dallisgrass plant response rating (dallisgrass; 125 g ai/ha, preemergence)
0: Cocklebur plant response rating (cocklebur; [6]) | Plant response rating, Cocklebur (cocklebur; Preemergence)
70: Barnyardgrass plant response rating (barnyardgrass [1]; [3]) | Plant response rating, Velvetleaf (velvetleaf) | Plant response rating, Black Mustard (mustard; Preemergence, 16 g ai/ha) | Signalgrass plant response rating (broadleaf signalgrass; 62 g ai/ha, Preemergence) | Plant response rating, Dayflower (Virginia dayflower; Preemergence, 31 g ai/ha) | Itchgrass plant response rating (itchgrass; 62 g ai/ha, Preemergence)
15: Plant response rating, Foxtail, Green (green foxtail; Preemergence, 16 g ai/ha)
85: Plant response rating (0 to 100), Cocklebur (cocklebur; Preemergence) | Dallisgrass plant response rating (dallisgrass; 62 g ai/ha, Preemergence) | Itchgrass plant response rating (itchgrass; 125 g ai/ha, preemergence)
50: Plant response rating, Dallisgrass (dallisgrass; Preemergence, 16 g ai/ha) | Plant response rating, Dallisgrass (dallisgrass; Preemergence, 31 g ai/ha) | Plant response rating, Dayflower (Virginia dayflower; Preemergence, 16 g ai/ha) | Plant response rating, Bluegrass (annual bluegrass; Preemergence, 31 g ai/ha) | Plant response rating, Field Bindweed (field bindweed; Preemergence, 16 g ai/ha) | Plant response rating, Field Bindweed (field bindweed; Preemergence, 31 g ai/ha)

Cc1cc[n+]([O-])c(S(=O)(=O)C(Cl)c2c(C(F)(F)F)nn(C)c2Cl)c1 (racemic) [Compound 22]
75: Barnyardgrass plant response rating (barnyardgrass [2]; 62 g ai/ha, Preemergence)
60: Signalgrass plant response rating (broadleaf signalgrass; 62 g ai/ha, Preemergence) | Itchgrass plant response rating (itchgrass; 125 g ai/ha, preemergence)
100: Plant response rating, Barnyardgrass (barnyardgrass [1]; Preemergence, 500 g ai/ha) | Dallisgrass plant response rating (dallisgrass; 125 g ai/ha, preemergence) | Dayflower plant response rating (Virginia dayflower; 125 g ai/ha, preemergence)
90: Barnyardgrass plant response rating (barnyardgrass [1]; [5]) | Dallisgrass plant response rating (dallisgrass; 62 g ai/ha, Preemergence)
95: Foxtail, Green plant response rating (green foxtail; 125 g ai/ha, preemergence) | Barnyardgrass plant response rating (barnyardgrass [2]; 125 g ai/ha, preemergence)
15: Plant response rating, Foxtail, Green (green foxtail; Preemergence, 31 g ai/ha)
20: Foxtail, Green plant response rating (green foxtail; 62 g ai/ha, Preemergence) | Plant response rating, Black Mustard (mustard; Preemergence, 31 g ai/ha) | Plant response rating, Dallisgrass (dallisgrass; Preemergence, 31 g ai/ha)
65: Mallow plant response rating (common mallow; 62 g ai/ha, Preemergence) | Mallow plant response rating (common mallow; 125 g ai/ha, preemergence)
80: Barnyardgrass plant response rating (barnyardgrass [1]; [4]) | Black Mustard plant response rating (mustard; 125 g ai/ha, preemergence) | Signalgrass plant response rating (broadleaf signalgrass; 125 g ai/ha, preemergence)
30: Bluegrass plant response rating (annual bluegrass; 62 g ai/ha, Preemergence)
50: Black Mustard plant response rating (mustard; 62 g ai/ha, Preemergence) | Plant response rating, Signalgrass (broadleaf signalgrass; Preemergence) | Bluegrass plant response rating (annual bluegrass; 125 g ai/ha, preemergence)
0: Cocklebur plant response rating (cocklebur; [6]) | Plant response rating, Cocklebur (cocklebur; Preemergence) | Plant response rating (0 to 100), Cocklebur (cocklebur; Preemergence) | Cocklebur plant response rating (cocklebur; [7]) | Kochia plant response rating (kochia) | Plant response rating, Kochia (kochia) | Velvetleaf plant response rating (velvetleaf) | Plant response rating, Velvetleaf (velvetleaf) | Plant response rating, Foxtail, Green (green foxtail; Preemergence, 16 g ai/ha) | Plant response rating, Black Mustard (mustard; Preemergence, 16 g ai/ha) | Plant response rating, Dallisgrass (dallisgrass; Preemergence, 16 g ai/ha) | Plant response rating, Dayflower (Virginia dayflower; Preemergence, 16 g ai/ha) | Plant response rating, Dayflower (Virginia dayflower; Preemergence, 31 g ai/ha) | Plant response rating, Bluegrass (annual bluegrass; Preemergence, 16 g ai/ha) | Plant response rating, Bluegrass (annual bluegrass; Preemergence, 31 g ai/ha) | Itchgrass plant response rating (itchgrass; 62 g ai/ha, Preemergence) | Plant response rating, Itchgrass (itchgrass; Preemergence, 16 g ai/ha) | Plant response rating, Itchgrass (itchgrass; Preemergence, 31 g ai/ha) | Field Bindweed plant response rating (field bindweed; 62 g ai/ha, Preemergence) | Plant response rating, Field Bindweed (field bindweed; Preemergence, 16 g ai/ha) | Plant response rating, Field Bindweed (field bindweed; Preemergence, 31 g ai/ha) | Plant response rating, Mallow (common mallow; Preemergence, 16 g ai/ha) | Plant response rating, Mallow (common mallow; Preemergence, 31 g ai/ha)
40: Barnyardgrass plant response rating (barnyardgrass [1]; [3]) | Plant response rating, Barnyardgrass (barnyardgrass [2]; Preemergence, 31 g ai/ha) | Dayflower plant response rating (Virginia dayflower; 62 g ai/ha, Preemergence)
35: Field Bindweed plant response rating (field bindweed; 125 g ai/ha, preemergence)
10: Plant response rating, Barnyardgrass (barnyardgrass [2]; Preemergence, 16 g ai/ha)
